Experiments:
Assay in all cases: relative viability (nuclei count vs DMSO), 5 days (fraction); higher = more cells survive
[1] = compound: CC(C)S(=O)(=O)C1=CC=CC=C1NC2=NC(=NC(=C2Cl)N)NC3=C(C=C(C=C3)N4CCC(CC4)C(=O)N)OC [HG-5-88-01]
Procedure, shortened: (§1)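 After an overnight hold at 37 °C, lung cancer cell lines in 1536-well plates were pinned with five library-drug doses (not always all listed), each √10 from the next, on vehicle-anchored plates. The cells stayed 5 days without fresh medium, then a one-step fix, permeabilisation and Hoechst stain preceded 4× imaging and MetaXpress nuclear counts. A plate passed only with control CV under 25% and at least one doubling. Viability is the median, over plates, of treated-well nuclei relative to vehicle-well nuclei.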

[2] = compound: C[C@@H]1CN(CC(=O)Nc2ccc3c(c2)Cc2cccc(-c4cc(=O)cc(N5CCOCC5)o4)c2S3)C[C@H](C)O1
Procedure, shortened: as §1

[3] = compound: CCCCCCCCCCCC1=C(O)C(=O)C=C(O)C1=O [Embelin]
Procedure, shortened: as §1

[4] = compound: Clc1ccc(Nc2nnc(Cc3ccncc3)c3ccccc23)cc1 [Vatalanib]
Procedure, shortened: as §1

[5] = compound: CC(C)Oc1cc(Nc2nc(N[C@@H](C)c3ccc(F)cn3)ncc2Cl)n[nH]1 [AZ23]
Procedure, shortened: as §1

| Cell Line | relative viability ([1]; 0.04 µM) | relative viability ([1]; 0.1265 µM) | relative viability ([1]; 0.4 µM) | relative viability ([1]; 1.265 µM) | relative viability ([1]; 4 µM) | relative viability ([2]; 0.04 µM) | relative viability ([2]; 0.1265 µM) | relative viability ([2]; 0.4 µM) | relative viability ([2]; 4 µM) | relative viability ([3]; 0.08 µM) | relative viability ([3]; 0.8 µM) | relative viability ([3]; 2.53 µM) | relative viability ([3]; 8 µM) | relative viability ([4]; 0.04 µM) | relative viability ([4]; 0.1265 µM) | relative viability ([4]; 0.4 µM) | relative viability ([4]; 1.265 µM) | relative viability ([4]; 4 µM) | relative viability ([5]; 0.01 µM) | relative viability ([5]; 0.03162 µM) | relative viability ([5]; 0.3162 µM) |
| --- | --- | --- | --- | --- | --- | --- | --- | --- | --- | --- | --- | --- | --- | --- | --- | --- | --- | --- | --- | --- | --- |
| SW 900 | 0.901 | 0.881 | 0.86 | 0.888 | 0.497 | 0.854 | 0.899 | 0.954 | 0.708 | 0.866 | 0.954 | 1.01 | 0.581 | 0.698 | 0.807 | 1.07 | 0.737 | 1.03 | 0.764 | 0.635 | 0.883 |
| NCI-H1792 | 1.01 | 1.08 | 1 | 0.834 | 1.03 | 0.895 | 0.8 | 0.9 | 0.797 | 0.924 | 1.07 | 1.11 | 1.06 | 0.912 | 0.707 | 0.861 | 0.827 | 0.782 | 0.788 | 1.07 | 1.1 |
| NCI-H522 | 1.04 | 0.903 | 0.849 | 0.804 | 0.706 | 0.77 | 1 | 1.11 | 0.864 | 1.01 | 1.13 | 1.15 | 0.821 | 1.1 | 0.767 | 0.966 | 0.917 | 0.876 | 1.04 | 1.12 | 1.09 |
| NCI-H2170 | 0.977 | 1.02 | 0.899 | 0.706 | 1.01 | 0.989 | 0.997 | 0.985 | 0.888 | 0.981 | 1.01 | 1.09 | 0.919 | 1.03 | 0.979 | 0.997 | 0.987 | 0.944 | 1.07 | 0.977 | 1.2 |
| HCC-366 | 0.998 | 1.01 | 0.987 | 0.987 | 1.05 | 1.01 | 0.987 | 1.08 | 0.925 | 1.01 | 1.03 | 1.09 | 1.06 | 1.01 | 0.881 | 1.01 | 0.975 | 0.978 | 1.04 | 1.03 | 1.03 |
| ChaGo-K-1 | 1.02 | 1.03 | 0.936 | 1.03 | 0.841 | 0.826 | 0.961 | 0.967 | 0.979 | 1.06 | 1.01 | 1.05 | 0.983 | 0.87 | 0.983 | 1.01 | 0.962 | 1.06 | 1.2 | 1.09 | 1.04 |
| NCI-H2347 | 1.04 | 1.02 | 1.07 | 0.94 | 1.01 | 1.1 | 1.08 | 1.08 | 0.981 | 0.987 | 1.09 | 1.09 | 1.03 | 1.09 | 1.01 | 1.02 | 0.961 | 0.938 | 1.12 | 1.16 | 0.997 |
| NCI-H1437 | 1.04 | 1.04 | 0.995 | 0.917 | 1.01 | 0.977 | 0.995 | 1.06 | 0.885 | 0.961 | 1.11 | 1.04 | 0.709 | 0.984 | 0.987 | 1.01 | 0.938 | 0.969 | 1.02 | 1.09 | 1 |
| NCI-H2087 | 1.16 | 0.989 | 0.916 | 1.07 | 0.746 | 1.15 | 0.912 | 1.1 | 0.948 | 1.01 | 1.22 | 1.27 | 1.05 | 1.18 | 0.928 | 1.08 | 0.889 | 1.09 | 1.24 | 1.21 | 0.963 |
| BEN | 0.866 | 1.07 | 0.884 | 0.873 | 1.05 | 0.929 | 0.881 | 1.12 | 0.955 | 1.04 | 1.14 | 1.1 | 1.02 | 0.954 | 0.904 | 0.951 | 0.882 | 0.946 | 1.05 | 1.12 | 0.994 |
| NCI-H2126 | 0.905 | 0.989 | 0.923 | 0.904 | 0.88 | 1.01 | 0.979 | 1 | 0.909 | 1.03 | 0.991 | 1.03 | 0.934 | 0.983 | 1 | 1.03 | 0.945 | 0.925 | 1.05 | 1.02 | 0.991 |
| NCI-H647 | 1 | 0.97 | 0.832 | 0.971 | 1.1 | 0.882 | 0.976 | 1 | 0.734 | 0.985 | 1.25 | 1.08 | 0.914 | 1 | 0.943 | 0.933 | 0.916 | 0.85 | 0.949 | 1.04 | 1.22 |
| EPLC-272H | 0.985 | 0.894 | 0.984 | 0.753 | 0.0869 | 0.982 | 1 | 1.09 | 0.932 | 0.969 | 1.18 | 0.962 | 0.806 | 0.958 | 0.906 | 1.13 | 0.889 | 0.89 | 0.674 | 1.11 | 0.745 |
| NCI-H1975 | 0.951 | 0.972 | 0.835 | 0.844 | 0.454 | 0.932 | 0.901 | 0.935 | 0.738 | 1.03 | 0.959 | 0.94 | 1.04 | 0.972 | 0.919 | 1.01 | 0.787 | 0.841 | 1.13 | 1.09 | 0.971 |
| HCC-78 | 0.836 | 0.736 | 0.476 | 0.378 | 0.417 | 0.883 | 0.922 | 0.821 | 0.923 | 1.02 | 1.02 | 0.977 | 1.07 | 0.95 | 0.862 | 0.972 | 0.82 | 0.835 | 0.837 | 1.01 | 0.589 |
| NCI-H358 | 0.88 | 0.879 | 0.794 | 0.34 | 0.311 | 0.989 | 0.905 | 0.958 | 0.673 | 1.02 | 0.982 | 1.09 | 1.15 | 1.02 | 0.911 | 0.986 | 0.962 | 0.955 | 1.03 | 1.03 | 1.04 |
| LCLC-97TM1 | 0.98 | 0.922 | 0.807 | 0.838 | 0.291 | – | 0.965 | 0.853 | 1.04 | 0.906 | 1.15 | 1.17 | 0.971 | 0.875 | 0.84 | 0.977 | 0.838 | 1.03 | 0.998 | 0.915 | 0.873 |
| Calu-6 | 1.04 | 0.965 | 0.946 | 0.948 | 0.854 | 1.04 | 0.951 | 1.03 | 0.74 | 1.01 | 1.09 | 1.07 | 1.07 | 1.06 | 0.958 | 1.06 | 0.949 | 0.976 | – | 1.09 | 1.01 |
| NCI-H1703 | 0.778 | 0.983 | 0.663 | 0.941 | 0.954 | 1.26 | 0.763 | 0.797 | 0.668 | 0.99 | 1.79 | 0.899 | 0.838 | 1.12 | 0.754 | 1.14 | 0.527 | 0.363 | – | 0.879 | 0.943 |
| COR-L23 | 1.05 | 1.08 | 0.964 | 0.952 | 0.867 | 1.03 | 1.07 | 1.06 | 0.877 | 1 | 1.18 | 1.06 | 1.16 | 0.971 | 0.977 | 1.13 | 1.01 | 0.994 | 1.03 | 1.11 | 1.15 |
| NCI-H2228 | 0.725 | 0.588 | 0.371 | 0.3 | 0.345 | 0.941 | 0.937 | 0.909 | 0.625 | 1 | 0.946 | 1.08 | 1.02 | 0.988 | 0.902 | 1.15 | 1.09 | 0.975 | 1.16 | 1.1 | 0.868 |
| NCI-H2342 | 0.759 | 1.1 | 0.93 | 0.728 | 1.05 | 1.01 | 0.847 | 0.83 | 0.786 | 0.894 | 1.02 | 1.15 | 0.898 | 1 | 0.913 | 0.97 | 1.03 | 0.975 | 0.993 | 0.942 | 1.02 |
| NCI-H2009 | 1.05 | 1.07 | 0.931 | 0.951 | 0.947 | 1.05 | 1.01 | 0.935 | 0.766 | 1.01 | 1.19 | 0.959 | 1 | 1.15 | 0.928 | 1.1 | 0.952 | 0.98 | 1.01 | 1.1 | 1.09 |
| NCI-H1395 | 0.9 | 0.97 | 0.921 | 0.953 | 0.876 | 0.854 | 0.816 | 0.761 | 0.999 | 0.941 | 1.15 | 0.857 | 0.617 | 0.939 | 0.871 | 0.863 | 0.813 | 0.885 | – | 1.01 | 0.849 |
| NCI-H1651 | 0.994 | 0.993 | 0.986 | 0.976 | 1.07 | 0.954 | 0.954 | 1.03 | 0.981 | 0.992 | 1.03 | 1.03 | 0.946 | 1.01 | 0.935 | 0.955 | 0.92 | 0.958 | 0.947 | 1.05 | 1.05 |
